Assay results published in patent US20250197864A1, “LNCRNA TRANSCRIPTS IN MELANOMAGENESIS” (The Regents of the University of California, priority 2021, published 2025).

Tested on: gene expression in D04 melanoma cells
Assay: RNA-Seq differential expression analysis (DESeq2)
Type: cell-based, human
Description: Total RNA was isolated using the RNeasy mini Kit (QIAGEN) following the manufacturer's protocol. Quality check for extracted RNA was done using 2100 Bioanalyzer (Agilent Technologies, USA) or Tapestation System (Agilent Technologies, USA). […] For samples used for identification of MAPK-responsive lncRNAs, paired-end, 101-bp sequencing was performed by Centrillion Genomic Services (Centrillion Biosciences, USA) on an Illumina HiSeq 2000. For DE gene analysis of ASO-transfected D04 samples, paired-end, 2×150-bp sequencing was performed by Genewiz (USA) on a Illumina HiSeq.
Sequence reads were aligned to the human genome (hg19) using TopHat (Version 2.0.11).
Differential expression (DE) analysis was done using DESeq2. Differentially expressed genes were defined by more than 1.5-fold changes (log 2 >0.58 or <−0.58) in expression with FDR<0.05. GO term analysis was done using DAVID Functional Annotation Clustering analysis.
To examine the biomolecular changes upon TRASH-inhibition in melanoma, D04 cells were treated with TRASH-ASOs (SEQ ID NO:15) and Control-ASOs and RNA was extracted and used for RNA-Seq. […] These GO terms consisted of genes encoding growth factors, tyrosine kinases, G protein coupled receptor subunits, and collagen subunits. Scatter plot diagram showing differential gene expression after TRASH-ASO treatment compared to Control-ASO treatment. (cut-off for significance was adjusted p-value <0.05). Data was obtained from RNA-Seq of D04 melanoma cells, treatment period was three days. (FIG. 5c)

## GACTGGAGATAATTAA (gapmer, pattern not given here) [SEQ ID NO: 15, GapmeR ASO targeting AC004540.4 (TRASH), exon region of both isoforms; used for in vitro experiments]
PPM1L (ENSG00000163590)
  log2FoldChange: −0.7017
PRICKLE2 (ENSG00000163637)
  log2FoldChange: −0.6639
PRR5L (ENSG00000135362)
  log2FoldChange: −0.6328
PTPRN2 (ENSG00000155093)
  log2FoldChange: 2.844
PTPRR (ENSG00000153233)
  log2FoldChange: 1.4591
PURPL (ENSG00000250337)
  log2FoldChange: −0.6494
PYROXD2 (ENSG00000119943)
  log2FoldChange: −0.6602
RAB11FIP3 (ENSG00000090565)
  log2FoldChange: −0.5869
RAB26 (ENSG00000167964)
  log2FoldChange: −0.6129
RAB39B (ENSG00000155961)
  log2FoldChange: 2.06
RASEF (ENSG00000165105)
  log2FoldChange: 1.674
RASL10B (ENSG00000270885)
  log2FoldChange: −0.6526
RBMS3 (ENSG00000144642)
  log2FoldChange: −0.6061
RFTN2 (ENSG00000162944)
  log2FoldChange: −0.6802
RGS4 (ENSG00000117152)
  log2FoldChange: 1.366
RGS5 (ENSG00000143248)
  log2FoldChange: −0.6262
RINL (ENSG00000187994)
  log2FoldChange: 1.242
ROBO4 (ENSG00000154133)
  log2FoldChange: 2.692
RPLPOP2 (ENSG00000243742)
  log2FoldChange: 1.744
RUNDC3A (ENSG00000108309)
  log2FoldChange: 1.302
S1PR2 (ENSG00000267534)
  log2FoldChange: −0.6769
S100A3 (ENSG00000188015)
  log2FoldChange: −0.6246
SAMD5 (ENSG00000203727)
  log2FoldChange: −0.6969
SAMD9L (ENSG00000177409)
  log2FoldChange: −0.5978
SBSN (ENSG00000189001)
  log2FoldChange: 1.621
SBSPON (ENSG00000164764)
  log2FoldChange: −0.705
SCG2 (ENSG00000171951)
  log2FoldChange: −0.6659
SCG5 (ENSG00000166922)
  log2FoldChange: 1.621
SCN1B (ENSG00000105711)
  log2FoldChange: −0.608
SCN4A (ENSG00000007314)
  log2FoldChange: 2.301
SDCCAG8 (ENSG00000054282)
  log2FoldChange: −0.7066
SERPINB7 (ENSG00000166396)
  log2FoldChange: 1.415
SERPINI2 (ENSG00000114204)
  log2FoldChange: 2.645
SH2D1B (ENSG00000198574)
  log2FoldChange: 1.495
SHROOM4 (ENSG00000158352)
  log2FoldChange: −0.6228
SIGLEC15 (ENSG00000197046)
  log2FoldChange: 2.101
SIL1 (ENSG00000120725)
  log2FoldChange: −0.6521
SLAMF7 (ENSG00000026751)
  log2FoldChange: 2.821
SLAMF9 (ENSG00000162723)
  log2FoldChange: 2.487
SLC45A2 (ENSG00000164175)
  log2FoldChange: −0.6697
SLCO4C1 (ENSG00000173930)
  log2FoldChange: −0.6425
SOCS2 (ENSG00000120833)
  log2FoldChange: −0.5921
SOCS3 (ENSG00000184557)
  log2FoldChange: −0.6206
SOX2 (ENSG00000181449)
  log2FoldChange: −0.7006
SPANXC (ENSG00000198573)
  log2FoldChange: 1.331
SPINK1 (ENSG00000164266)
  log2FoldChange: 3.07
SPINT2 (ENSG00000167642)
  log2FoldChange: 2.192
SPRY2 (ENSG00000136158)
  log2FoldChange: −0.6059
SPRY4 (ENSG00000187678)
  log2FoldChange: −0.6537
ST6GALNAC2 (ENSG00000070731)
  log2FoldChange: −0.6963
ST6GALNAC5 (ENSG00000117069)
  log2FoldChange: −0.6397
STRA6 (ENSG00000137868)
  log2FoldChange: −0.6369
STX17-AS1 (ENSG00000255145)
  log2FoldChange: 1.8172
SULT1A1 (ENSG00000196502)
  log2FoldChange: −0.7045
SYNGR1 (ENSG00000100321)
  log2FoldChange: −0.6288
SYT11 (ENSG00000132718)
  log2FoldChange: 1.326
SYT16 (ENSG00000139973)
  log2FoldChange: 1.62
TEK (ENSG00000120156)
  log2FoldChange: −0.6347
TENM1 (ENSG00000009694)
  log2FoldChange: −0.7059
TFAP2E (ENSG00000116819)
  log2FoldChange: −0.6597
TGFB3 (ENSG00000119699)
  log2FoldChange: −0.6408
TGFBR3 (ENSG00000069702)
  log2FoldChange: −0.639
THSD4 (ENSG00000187720)
  log2FoldChange: −0.6139
TINAGL1 (ENSG00000142910)
  log2FoldChange: 1.287
TM4SF1 (ENSG00000169908)
  log2FoldChange: 1.389
TMC8 (ENSG00000167895)
  log2FoldChange: 1.259
TMEM117 (ENSG00000139173)
  log2FoldChange: −0.6405
TMEM135 (ENSG00000166575)
  log2FoldChange: −0.6788
TNFRSF11B (ENSG00000164761)
  log2FoldChange: −0.5845
TNFSF8 (ENSG00000106952)
  log2FoldChange: 1.66
TNFSF10 (ENSG00000121858)
  log2FoldChange: −0.6562
TNFSF11 (ENSG00000120659)
  log2FoldChange: −0.6111
TOM1L2 (ENSG00000175662)
  log2FoldChange: −0.6126
TRIB2 (ENSG00000071575)
  log2FoldChange: −0.6666
TRIML2 (ENSG00000179046)
  log2FoldChange: 2.081
TSPAN9 (ENSG00000011105)
  log2FoldChange: −0.6484
VIPR2 (ENSG00000106018)
  log2FoldChange: 1.91
VWA1 (ENSG00000179403)
  log2FoldChange: −0.6674
VWCE (ENSG00000167992)
  log2FoldChange: 1.639
XAF1 (ENSG00000132530)
  log2FoldChange: −0.6048
XG (ENSG00000124343)
  log2FoldChange: 2.256
ZC3H6 (ENSG00000188177)
  log2FoldChange: −0.6449
ZDHHC11 (ENSG00000188818)
  log2FoldChange: 1.322
ZFYVE28 (ENSG00000159733)
  log2FoldChange: −0.6436
ZHX2 (ENSG00000178764)
  log2FoldChange: −0.5891
ZNF165 (ENSG00000197279)
  log2FoldChange: 1.226
ZNF185 (ENSG00000147394)
  log2FoldChange: 1.367
ZSCAN31 (ENSG00000235109)
  log2FoldChange: −0.6972
